Patent EP4790046A1, “NOVEL COMPOUND DERIVED FROM MYRISTICA FRAGRANS, AND ANTICANCER COMPOSITION COMPRISING SAME” (Korea Institute of Science and Technology, priority 2023, dated 2025)
Where two headings read alike, the source gives them in different places.

What was measured:
[1] = tested on: AGS; assay: alamarBlue cell viability (survival rate, IC50), AGS; type: cell-based; details: AGS (gastric cancer); for viability at 10 µM / IC50: Homo sapiens; for viability at 10 µM / Cancer cell line survival rate (%): compound 10 µM, 48 hours; for viability at 10 µM: read-out: Cancer cell line survival rate (%); for IC50: 2.5-40 µM, positive control = doxorubicin
Text: (§1) A p-value < 0.05 was considered statistically significant.

[2] = tested on: SNU-719; assay: alamarBlue cell viability (survival rate, IC50), SNU-719; type: cell-based; details: for viability at 10 µM / Cancer cell line survival rate (%): SNU-719 (gastric cancer), compound 10 µM, 48 hours; for viability at 10 µM: read-out: Cancer cell line survival rate (%); for IC50: SNU719 (gastric cancer), 2.5-40 µM, positive control = doxorubicin
Text: as §1

[3] = tested on: HepG2; assay: alamarBlue cell viability (survival rate), HepG2; type: cell-based; details: HepG2 (liver cancer), compound 10 µM, 48 hours; for viability at 10 µM: Homo sapiens, read-out: Cancer cell line survival rate (%)
Text: as §1

[4] = tested on: SNU-C5; assay: alamarBlue cell viability (survival rate, IC50), SNU-C5; type: cell-based; details: for viability at 10 µM / Cancer cell line survival rate (%): SNU-C5 (colorectal cancer), compound 10 µM, 48 hours; for viability at 10 µM: read-out: Cancer cell line survival rate (%)
Text: as §1

[5] = tested on: SNU201; assay: alamarBlue cell viability (survival rate), SNU201; type: cell-based; details: SNU201 (glioblastoma), compound 10 µM, 48 hours; for viability at 10 µM: read-out: Cancer cell line survival rate (%)
Text: as §1

[6] = tested on: 23132/87; assay: alamarBlue cell viability (survival rate, IC50), 23132/87; type: cell-based; details: 23132/87 (gastric cancer); for viability at 10 µM / Cancer cell line survival rate (%): compound 10 µM, 48 hours; for viability at 10 µM: read-out: Cancer cell line survival rate (%); for IC50: 2.5-40 µM, positive control = doxorubicin
Text: as §1

[7] = tested on: MiaPaCa-2; assay: alamarBlue cell viability (survival rate), MiaPaCa-2; type: cell-based; details: MiaPaCa-2 (pancreatic cancer), compound 10 µM, 48 hours; for viability at 10 µM: Homo sapiens, MIA PaCa-2, read-out: Cancer cell line survival rate (%)
Text: as §1

[8] = tested on: SW48; assay: alamarBlue cell viability (survival rate, IC50), SW48; type: cell-based; details: SW48 (colorectal cancer); for viability at 10 µM / IC50: Homo sapiens; for viability at 10 µM / Cancer cell line survival rate (%): compound 10 µM, 48 hours; for viability at 10 µM: read-out: Cancer cell line survival rate (%); for IC50: 2.5-40 µM, positive control = oxaliplatin
Text: as §1

[9] = tested on: SNU-81; assay: alamarBlue cell viability (survival rate, IC50), SNU-81; type: cell-based; details: for viability at 10 µM / Cancer cell line survival rate (%): SNU-81 (colorectal cancer), compound 10 µM, 48 hours; for viability at 10 µM: read-out: Cancer cell line survival rate (%)
Text: as §1

[10] = tested on: SNU466; assay: alamarBlue cell viability (survival rate), SNU466; type: cell-based; details: SNU466 (glioblastoma), compound 10 µM, 48 hours; for viability at 10 µM: read-out: Cancer cell line survival rate (%)
Text: as §1

[11] = tested on: various cancer cell lines; assay: alamarBlue cell viability, statements across the cell line panel; details: for anticancer activity: various cancer cell lines
Protocol: AGS, SW48, HepG2, and MiaPaCa-2 was purchased from ATCC (American Type Culture Collection, USA), SNU cell lines from the Korean Cell Line Bank (KCLB, Korea), and 23132/87 from the Leibniz Institute DSMZ - German Collection of Microorganisms and Cell Cultures GmbH (DSMZ, Germany). All cell lines were cultured in RPMI-1640 medium (HyClone, USA) supplemented with 10% FBS (Gibco, USA) and 1% penicillin-streptomycin (HyClone, USA) under conditions of 5% CO2, 37°C.
Cells were seeded at a density of 5 × 10^3cells/well in a 96-well plate for 24 hours, then treated with the compound at an appropriate concentration (10 µM) for 48 hours. After treatment, alamarBlue reagent was added at a volume ratio of 1/10 of the treatment volume and incubated for 4 hours in a 37°C cell incubator (protected from direct light). Cell viability was then determined by measuring absorbance values at 570 nm and 600 nm using a microplate reader. The anticancer effects of candidate compounds were evaluated by assessing the cell viability (%) of cells treated at specific concentrations and the half-maximal inhibitory concentration (IC50) of each natural product. Doxorubicin and oxaliplatin were used as positive controls for gastric and colorectal cancer, respectively.
Statistical analysis was performed using R software (version 4.2.2) (R Core Team). Differences between groups were assessed using student's t-test or 1-way ANOVA followed by post-hoc Tukey HSD test. A p-value < 0.05 was considered statistically significant.
Further, to measure the IC50 values against six cancer cell lines.

[12] = SNUC5 (colorectal cancer), 2.5-40 µM, positive control = oxaliplatin, read-out: IC50
[13] = SNU81 (colorectal cancer), 2.5-40 µM, positive control = oxaliplatin, read-out: IC50

COc1cc([C@H]2Oc3c(OC)cc(/C=C/Cc4c(CCCCCCCCC(=O)c5c(O)cccc5O)ccc(O)c4O)cc3[C@@H]2C)ccc1O [Compound 18, Myricone T]
viability at 10 µM [1]: 91.9% | viability at 10 µM [2]: 104% | viability at 10 µM [3]: 89% | viability at 10 µM [4]: 78% | viability at 10 µM [5]: 104% | viability at 10 µM [6]: 87.1% | viability at 10 µM [7]: 74.8% | viability at 10 µM [8]: 83.5% | viability at 10 µM [9]: 102% | viability at 10 µM [10]: 86.2%

COc1cc([C@H]2Oc3c(OC)cc(/C=C/Cc4cc(O)c(O)cc4CCCCCCCCC(=O)c4c(O)cccc4O)cc3[C@@H]2C)ccc1O [Compound 17, Myricone Q]
viability at 10 µM [1]: 80.5% | viability at 10 µM [2]: 54.9% | viability at 10 µM [3]: 108% | viability at 10 µM [4]: 58.5% | viability at 10 µM [5]: 105% | viability at 10 µM [6]: 85% | anticancer activity [11]: high anticancer activity | viability at 10 µM [7]: 59.9% | viability at 10 µM [8]: 60.2% | viability at 10 µM [9]: 113% | viability at 10 µM [10]: 45.6%

COc1cc(C(c2ccc(O)c(C(=O)CCCCCCCCc3ccc(O)c(O)c3)c2O)C(C)C(C)Cc2ccc3c(c2)OCO3)ccc1O (stereo not shown) [Compound 14, Myricone O]
viability at 10 µM [1]: 81.4% | viability at 10 µM [2]: 71.6% | viability at 10 µM [3]: 67% | viability at 10 µM [4]: 18.8% | viability at 10 µM [5]: 101% | viability at 10 µM [6]: 78.2% | anticancer activity [11]: high anticancer activity | viability at 10 µM [7]: 87.8% | viability at 10 µM [8]: 31.1% | viability at 10 µM [9]: 104% | viability at 10 µM [10]: 56.1%

C=CCc1cc(OC)c(OC(C)C(Oc2cccc(O)c2C(=O)CCCCCCCCc2ccc(O)cc2)c2ccc(O)c(OC)c2)c(OC)c1 (stereo not shown) [Compound 12, Myricone M]
viability at 10 µM [1]: 7.89% | viability at 10 µM [2]: 0.53% | viability at 10 µM [3]: 1.23% | viability at 10 µM [4]: 1.98% | viability at 10 µM [5]: 0.75% | viability at 10 µM [6]: 0.67% | anticancer activity [11]: high anticancer activity | viability at 10 µM [7]: 3.46% | viability at 10 µM [8]: 2.52% | viability at 10 µM [9]: 2.27% | viability at 10 µM [10]: 0.64%

C/C=C/c1ccc(O[C@H](C)[C@H](c2ccc(O)c(OC)c2)c2ccc(O)c(C(=O)CCCCCCCCc3ccc(O)c(O)c3)c2O)c(OC)c1 (relative stereo) [Compound 8, Myrifragranone A]
Cancer cell line survival rate (%) [1]: 2.19% | Cancer cell line survival rate (%) [2]: 2.27% | Cancer cell line survival rate (%) [3]: 95.41% | Cancer cell line survival rate (%) [4]: 4.41% | Cancer cell line survival rate (%) [5]: 108.12% | Cancer cell line survival rate (%) [6]: 3.92% | Cancer cell line survival rate (%) [7]: 74.57% | Cancer cell line survival rate (%) [8]: 2.04% | Cancer cell line survival rate (%) [9]: 10.02% | Cancer cell line survival rate (%) [10]: 93.39%

O=C1[O][Pt]2([NH][C@@H]3CCCC[C@H]3[NH]2)[O]C1=O [oxaliplatin, reference compound]
IC50 ([4]; SNUC5 cells, compound 2.5-40 µM, read-out: IC50 values): 12.6 µM | IC50 ([9]; SNU81 cells, compound 2.5-40 µM, read-out: IC50 values): 41.5 µM

C=CCc1cc(OC)c(O[C@H](C)[C@H](c2ccc(O)c(OC)c2)c2ccc(O)c(C(=O)CCCCCCCCc3ccc(O)c(O)c3)c2O)c(OC)c1 [Compound 1, Myricone A or Myrifragranone B, reference compound]
Cancer cell line survival rate (%) [1]: 1.13% | IC50 [1]: 4.07 µM | IC50 [2]: 3.99 µM | Cancer cell line survival rate (%) [2]: 3.95% | Cancer cell line survival rate (%) [3]: 2.07% | Cancer cell line survival rate (%) [4]: 8.73% | IC50 [4, 12]: 6.32 µM | Cancer cell line survival rate (%) [5]: 2.07% | IC50 [6]: 4.09 µM | Cancer cell line survival rate (%) [6]: 4.71% | Cancer cell line survival rate (%) [7]: 3.15% | IC50 [8]: 4.3 µM | Cancer cell line survival rate (%) [8]: 1.75% | IC50 [9, 13]: 14.6 µM | Cancer cell line survival rate (%) [9]: 94.79% | Cancer cell line survival rate (%) [10]: 1.7%

C=CCc1ccc(O[C@H](C)[C@H](c2ccc(O)c(OC)c2)c2ccc(O)c(C(=O)CCCCCCCCc3ccc(O)c(O)c3)c2O)c(OC)c1 [Compound 5, Myricone E]
viability at 10 µM [1]: 42.1% | viability at 10 µM [2]: 45% | viability at 10 µM [3]: 2.34% | viability at 10 µM [4]: 37.6% | viability at 10 µM [5]: 0.61% | viability at 10 µM [6]: 52.1% | viability at 10 µM [7]: 1.64% | viability at 10 µM [8]: 10.2% | viability at 10 µM [9]: 126% | viability at 10 µM [10]: 0.58%

COc1cc(CC(C)C(C)C(c2ccc(O)c(OC)c2)c2ccc(O)c(C(=O)CCCCCCCCc3ccc(O)c(O)c3)c2O)ccc1O (stereo not shown) [Compound 15, Myricone P]
viability at 10 µM [1]: 8.49% | viability at 10 µM [2]: 2.14% | viability at 10 µM [3]: 3.18% | viability at 10 µM [4]: 2.62% | viability at 10 µM [5]: 31.4% | viability at 10 µM [6]: 1.45% | anticancer activity [11]: high anticancer activity | viability at 10 µM [7]: 4.32% | viability at 10 µM [8]: 3.93% | viability at 10 µM [9]: 6.63% | viability at 10 µM [10]: 0.99%

C=CCc1cc(OC)c(O[C@H](C)[C@H](c2ccc(O)c(OC)c2)c2cc(O)c(O)cc2CCCCCCCCC(=O)c2c(O)cccc2O)c(OC)c1 [Compound 6, Myricone F]
IC50 [1]: 3.35 µM | viability at 10 µM [1]: 0.51% | IC50 [2]: 2.58 µM | viability at 10 µM [2]: 1.36% | viability at 10 µM [3]: 1.32% | viability at 10 µM [4]: 3.53% | IC50 [4, 12]: 4.04 µM | viability at 10 µM [5]: 1.4% | IC50 [6]: 2.39 µM | viability at 10 µM [6]: 1.46% | cytotoxic effects ([11]; gastric cancer cell lines and colorectal cancer cell lines, 10 µM, 48 hours): excellent cytotoxic effects | anticancer activity [11]: high anticancer activity | viability at 10 µM [7]: 2.16% | IC50 [8]: 3.09 µM | viability at 10 µM [8]: 0.82% | IC50 [9, 13]: 10.3 µM | viability at 10 µM [9]: 55.8% | viability at 10 µM [10]: 1.96%

C=CCc1cc(OC)c(O[C@H](C)[C@@H](c2ccc(O)c(OC)c2)c2ccc(O)c(C(=O)CCCCCCCCc3ccc(O)c(O)c3)c2O)c(OC)c1 [Compound 2, Myricone B]
IC50 [1]: 4.59 µM | viability at 10 µM [1]: 2.45% | IC50 [2]: 4.7 µM | viability at 10 µM [2]: 4.55% | viability at 10 µM [3]: 1.47% | viability at 10 µM [4]: 22.1% | IC50 [4, 12]: 6.85 µM | viability at 10 µM [5]: 1.43% | IC50 [6]: 4.25 µM | viability at 10 µM [6]: 7.44% | viability at 10 µM [7]: 3.67% | IC50 [8]: 6.18 µM | viability at 10 µM [8]: 7.98% | IC50 [9, 13]: 16.6 µM | viability at 10 µM [9]: 103% | viability at 10 µM [10]: 2.29%

C=CCc1cc(OC)c(O[C@H](C)[C@@H](c2ccc(O)c(OC)c2)c2ccc(O)c(C(=O)CCCCCCCCc3ccc(O)cc3)c2O)c(OC)c1 [Compound 4, Myricone D]
Cancer cell line survival rate (%) [1]: 10.15% | IC50 [1]: 7.27 µM | IC50 [2]: 5.01 µM | Cancer cell line survival rate (%) [2]: 10.19% | Cancer cell line survival rate (%) [3]: 1.84% | Cancer cell line survival rate (%) [4]: 12.41% | IC50 [4, 12]: 5.57 µM | Cancer cell line survival rate (%) [5]: 2.44% | IC50 [6]: 4.14 µM | Cancer cell line survival rate (%) [6]: 8.41% | anticancer activity [11]: high anticancer activity | Cancer cell line survival rate (%) [7]: 3.54% | IC50 [8]: 5.73 µM | Cancer cell line survival rate (%) [8]: 2.61% | IC50 [9, 13]: 16.9 µM | Cancer cell line survival rate (%) [9]: 115.60% | Cancer cell line survival rate (%) [10]: 1.74%

COc1cc([C@H]2Oc3c(OC)cc(/C=C/Cc4ccc(O)c(C(=O)CCCCCCCCc5ccc(O)c(O)c5)c4O)cc3[C@@H]2C)ccc1O [Compound 19, Myricone X]
viability at 10 µM [1]: 84.5% | viability at 10 µM [2]: 108% | viability at 10 µM [3]: 52.4% | viability at 10 µM [4]: 69.6% | viability at 10 µM [5]: 107% | viability at 10 µM [6]: 89.3% | viability at 10 µM [7]: 56.9% | viability at 10 µM [8]: 69.7% | viability at 10 µM [9]: 102% | viability at 10 µM [10]: 80.9%

O=C(CCCCCCCCc1cc(O)c(O)cc1-c1ccc(O)c(C(=O)CCCCCCCCc2ccc(O)c(O)c2)c1O)c1c(O)cccc1O [Compound 26, Giganteones A, reference compound]
IC50 [1]: 1.71 µM | IC50 [2]: 4.6 µM | IC50 [4, 12]: 3.72 µM | IC50 [6]: 4.08 µM | anticancer activity (comparison of IC50 values among compounds) ([11]; six cancer cell lines, 2.5-40 µM): overall superior activity to Myrifragranone B and Malabaricone C | IC50 [8]: 2.77 µM | IC50 [9, 13]: 8.94 µM
